# Calls of active or inactive are those of the source. No cut-off for these calls is given here.
# Legend:
# [1] = molecular target: T1, 5-hydroxytryptamine receptor 1A (Homo sapiens) (UniProt P08908); experiment: Inhibition of human 5-HT1A receptor expressed in stable […] cells at 10 uM relative to control; assay type: cell-based; conditions: HEK293T
# T1 sequence (whole entry): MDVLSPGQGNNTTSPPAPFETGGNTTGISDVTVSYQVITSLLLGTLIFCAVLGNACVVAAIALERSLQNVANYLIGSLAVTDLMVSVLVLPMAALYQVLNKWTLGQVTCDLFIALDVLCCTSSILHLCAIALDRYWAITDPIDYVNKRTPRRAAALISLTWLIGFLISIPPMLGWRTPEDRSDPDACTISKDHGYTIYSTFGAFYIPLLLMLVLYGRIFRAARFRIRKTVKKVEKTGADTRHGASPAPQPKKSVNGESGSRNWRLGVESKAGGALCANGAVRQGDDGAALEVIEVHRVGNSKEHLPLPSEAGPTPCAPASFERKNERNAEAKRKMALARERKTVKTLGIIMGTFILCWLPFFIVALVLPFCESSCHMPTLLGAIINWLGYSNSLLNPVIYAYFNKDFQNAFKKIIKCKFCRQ
# [2] = molecular target: Melatonin receptor type 1A (Homo sapiens) (UniProt P48039); experiment: Inhibition of human Melatonin receptor type 1A at 10 uM relative to control
# B-cell = experiment: Induction of DNA repair in mouse B cells assessed as inhibition in H4K20me3 level at 1 to 10 uM incubated for 96 hrs by western blot analysis; assay type: functional, cell-based; conditions: dose 1-10 µM
# [3] = molecular target: 5-hydroxytryptamine receptor 1B (Homo sapiens) (UniProt P28222); experiment: Inhibition of human 5-HT1B expressed in stable HEK cells at 10 uM relative to control; assay type: cell-based
# [4] = molecular target: Beta-2 adrenergic receptor (Homo sapiens) (UniProt P07550); experiment: Inhibition of human Beta-2 adrenergic receptor expressed in human Flp-In-293 cells at 10 uM relative to control; assay type: cell-based
# HeLa = experiment: Antiproliferative activity against human HeLa cells assessed as inhibition in H4K20me3 expression level for 21 doublings by Western blot analysis; assay type: functional, cell-based
# [5] = molecular target: Histamine H2 receptor (Homo sapiens) (UniProt P25021); experiment: Inhibition of human Histamine H2 receptor expressed in stable HEK cells at 10 uM relative to control; assay type: cell-based
# [6] = molecular target: Mu-type opioid receptor (Homo sapiens) (UniProt P35372); experiment: Inhibition of human Mu-type opioid receptor at 10 uM relative to control
# Embryonic stem cell = experiment: Antiproliferative activity against mouse Embryonic stem cell assessed as […] in H4K20me3 at 10 uM incubated for 3 days by immunofluorescence analysis; assay type: functional, cell-based; conditions: time 3.0 day
# [7] = molecular target: T2, Muscarinic acetylcholine receptor M2 (Homo sapiens) (UniProt P08172); experiment: Inhibition of human Muscarinic acetylcholine receptor M2 at 10 uM relative to control
# T2 sequence (whole entry): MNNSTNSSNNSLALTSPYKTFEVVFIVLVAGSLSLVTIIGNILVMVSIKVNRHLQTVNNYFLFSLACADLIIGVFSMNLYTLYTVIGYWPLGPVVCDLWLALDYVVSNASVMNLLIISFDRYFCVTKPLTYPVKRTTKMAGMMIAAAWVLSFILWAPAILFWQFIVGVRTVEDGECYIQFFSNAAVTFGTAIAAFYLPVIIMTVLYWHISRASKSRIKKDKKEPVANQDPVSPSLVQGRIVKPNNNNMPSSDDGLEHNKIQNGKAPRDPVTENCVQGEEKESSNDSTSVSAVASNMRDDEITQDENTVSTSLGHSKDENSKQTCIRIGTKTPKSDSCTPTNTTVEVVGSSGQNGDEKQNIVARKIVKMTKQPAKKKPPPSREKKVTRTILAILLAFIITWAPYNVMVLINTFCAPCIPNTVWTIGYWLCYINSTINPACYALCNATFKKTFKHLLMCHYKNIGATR
# [8] = molecular target: C-C chemokine receptor type 1 (Homo sapiens) (UniProt P32246); experiment: Inhibition of human C-C chemokine receptor type 1 at 10 uM relative to control
# [9] = molecular target: Nociceptin receptor (Homo sapiens) (UniProt P41146); experiment: Inhibition of human Nociceptin receptor at 10 uM relative to control
# [10] = molecular target: Serine/threonine-protein kinase Chk1 (Homo sapiens) (UniProt O14757); experiment: Inhibition of human CHK1 at 10 uM relative to control
# [11] = molecular target: Vasoactive intestinal polypeptide receptor 1 (Homo sapiens) (UniProt P32241); experiment: Inhibition of human VPAC1 at 10 uM relative to control
# [12] = molecular target: Histamine H3 receptor (Homo sapiens) (UniProt Q9Y5N1); experiment: Inhibition of human Histamine H3 receptor expressed in human Flp-In-293 cells at 10 uM relative to control; assay type: cell-based
# [13] = molecular target: D(1A) dopamine receptor (Homo sapiens) (UniProt P21728); experiment: Inhibition of human D(1A) dopamine receptor expressed in HEK293T cells at 10 uM relative to control; assay type: cell-based
# [14] = molecular target: Protein arginine N-methyltransferase 7 (Homo sapiens) (UniProt Q9NVM4); experiment: Inhibition of PRMT7 (unknown origin) using Biotin-tagged H4K20me1 and [3H-SAM] as substrate at 1 to 10 uM incubated for 2 hrs by scintillation proximity assay; conditions: dose 1-10 µM
# [15] = molecular target: 5-hydroxytryptamine receptor 6 (Homo sapiens) (UniProt P50406); experiment: Inhibition of human 5-HT6 expressed in stable HEK cells at 10 uM relative to control; assay type: cell-based
# [16] = molecular target: Beta-2 adrenergic receptor (Homo sapiens) (UniProt P07550); experiment: Inhibition of human Beta-2 adrenergic receptor at 10 uM relative to control
# [17] = molecular target: D(2) dopamine receptor (Homo sapiens) (UniProt P14416); experiment: Inhibition of human D(2) dopamine receptor at 10 uM relative to control
# [18] = molecular target: Adenosine receptor A1 (Homo sapiens) (UniProt P30542); experiment: Inhibition of human Adenosine receptor A1 at 10 uM relative to control
# [19] = molecular target: Neuromedin-K receptor (Homo sapiens) (UniProt P29371); experiment: Inhibition of human Neuromedin-K receptor at 10 uM relative to control
# [20] = molecular target: D(3) dopamine receptor (Homo sapiens) (UniProt P35462); experiment: Inhibition of human D(3) dopamine receptor expressed in HEK293T cells at 10 uM relative to control; assay type: cell-based
# [21] = molecular target: PRMT5/MEP50 complex (Homo sapiens) (UniProt O14744+Q9BQA1); experiment: Inhibition of PRMT5/MEP50 complex (unknown origin) using Biotin-tagged H4K20me1 and [3H-SAM] as substrate at 1 to 10 uM incubated for 2 hrs by scintillation proximity assay; assay type: protein-complex assay; conditions: dose 1-10 µM
# [22] = molecular target: Alpha-2B adrenergic receptor (Homo sapiens) (UniProt P18089); experiment: Inhibition of human Alpha-2B adrenergic receptor expressed in HEK293T cells at 10 uM relative to control; assay type: cell-based
# [23] = molecular target: Histone-lysine N-methyltransferase SUV39H1 (Homo sapiens) (UniProt O43463); experiment: Inhibition of SUV39H1 (unknown origin) using Biotin-tagged H4K20me1 and [3H-SAM] as substrate at 1 to 10 uM incubated for 2 hrs by scintillation proximity assay; conditions: dose 1-10 µM
# [24] = molecular target: Alpha-2A adrenergic receptor (Homo sapiens) (UniProt P08913); experiment: Inhibition of human Alpha-2A adrenergic receptor in stable Canis lupus familiaris MDCK cells at 10 uM relative to control; assay type: cell-based
# Alpha-2A adrenergic receptor (Homo sapiens), sequence (P08913 whole entry): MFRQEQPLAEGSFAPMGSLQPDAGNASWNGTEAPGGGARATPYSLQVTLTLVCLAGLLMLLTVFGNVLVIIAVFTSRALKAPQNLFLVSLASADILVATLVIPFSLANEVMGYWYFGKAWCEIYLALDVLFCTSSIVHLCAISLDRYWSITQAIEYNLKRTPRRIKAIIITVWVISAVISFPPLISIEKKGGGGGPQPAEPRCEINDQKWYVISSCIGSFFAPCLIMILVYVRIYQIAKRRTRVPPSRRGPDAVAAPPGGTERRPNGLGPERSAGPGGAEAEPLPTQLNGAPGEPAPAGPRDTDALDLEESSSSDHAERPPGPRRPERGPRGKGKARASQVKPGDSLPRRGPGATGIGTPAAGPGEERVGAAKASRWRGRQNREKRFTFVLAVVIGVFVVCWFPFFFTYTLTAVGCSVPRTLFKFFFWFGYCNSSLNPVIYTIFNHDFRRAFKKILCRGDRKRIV
# Beta-2 adrenergic receptor (Homo sapiens), sequence (P07550 whole entry, looked up): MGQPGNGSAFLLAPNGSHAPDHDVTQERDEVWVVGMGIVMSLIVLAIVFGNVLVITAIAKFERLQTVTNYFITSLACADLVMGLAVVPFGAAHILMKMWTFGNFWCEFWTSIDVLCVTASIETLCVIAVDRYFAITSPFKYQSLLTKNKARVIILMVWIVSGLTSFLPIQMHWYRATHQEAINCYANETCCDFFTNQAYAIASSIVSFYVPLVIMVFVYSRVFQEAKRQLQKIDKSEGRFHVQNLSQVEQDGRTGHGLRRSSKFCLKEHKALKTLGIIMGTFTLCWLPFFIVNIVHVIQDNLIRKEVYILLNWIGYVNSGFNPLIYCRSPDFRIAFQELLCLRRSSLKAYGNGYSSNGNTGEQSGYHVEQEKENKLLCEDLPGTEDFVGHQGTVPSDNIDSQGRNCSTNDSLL
# C-C chemokine receptor type 1 (Homo sapiens), sequence (P32246 whole entry): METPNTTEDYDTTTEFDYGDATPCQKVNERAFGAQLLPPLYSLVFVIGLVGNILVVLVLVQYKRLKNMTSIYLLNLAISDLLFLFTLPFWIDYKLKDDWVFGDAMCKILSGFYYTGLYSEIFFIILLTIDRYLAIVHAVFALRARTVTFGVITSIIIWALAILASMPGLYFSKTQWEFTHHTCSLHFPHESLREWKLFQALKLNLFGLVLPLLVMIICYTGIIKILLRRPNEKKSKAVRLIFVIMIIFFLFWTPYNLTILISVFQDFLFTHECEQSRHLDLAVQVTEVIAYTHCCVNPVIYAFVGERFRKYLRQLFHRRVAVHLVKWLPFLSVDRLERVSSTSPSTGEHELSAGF
# Vasoactive intestinal polypeptide receptor 1 (Homo sapiens), sequence (P32241 whole entry): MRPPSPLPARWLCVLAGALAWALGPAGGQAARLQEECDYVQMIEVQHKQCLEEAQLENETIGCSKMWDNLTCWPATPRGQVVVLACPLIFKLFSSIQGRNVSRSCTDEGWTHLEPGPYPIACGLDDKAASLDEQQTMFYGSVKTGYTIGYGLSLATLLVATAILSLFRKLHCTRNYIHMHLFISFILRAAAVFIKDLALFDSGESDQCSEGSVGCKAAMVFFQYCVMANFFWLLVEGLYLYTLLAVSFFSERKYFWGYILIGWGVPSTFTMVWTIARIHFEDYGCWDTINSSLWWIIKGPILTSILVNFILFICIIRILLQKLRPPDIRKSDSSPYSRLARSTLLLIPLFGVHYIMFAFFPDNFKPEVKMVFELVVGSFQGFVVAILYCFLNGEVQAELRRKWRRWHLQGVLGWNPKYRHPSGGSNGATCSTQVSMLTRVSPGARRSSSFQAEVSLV
# Mu-type opioid receptor (Homo sapiens), sequence (P35372 whole entry): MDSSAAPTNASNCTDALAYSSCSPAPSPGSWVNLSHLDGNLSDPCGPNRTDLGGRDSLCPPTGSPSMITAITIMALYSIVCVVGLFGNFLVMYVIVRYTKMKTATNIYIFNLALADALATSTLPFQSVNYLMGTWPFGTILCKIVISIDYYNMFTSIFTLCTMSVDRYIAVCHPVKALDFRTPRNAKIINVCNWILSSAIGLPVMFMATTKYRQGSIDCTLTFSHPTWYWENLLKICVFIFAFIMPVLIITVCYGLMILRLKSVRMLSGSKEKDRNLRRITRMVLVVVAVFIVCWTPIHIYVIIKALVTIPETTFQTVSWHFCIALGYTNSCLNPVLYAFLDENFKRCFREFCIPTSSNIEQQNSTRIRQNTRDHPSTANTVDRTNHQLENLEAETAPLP
# Nociceptin receptor (Homo sapiens), sequence (P41146 whole entry): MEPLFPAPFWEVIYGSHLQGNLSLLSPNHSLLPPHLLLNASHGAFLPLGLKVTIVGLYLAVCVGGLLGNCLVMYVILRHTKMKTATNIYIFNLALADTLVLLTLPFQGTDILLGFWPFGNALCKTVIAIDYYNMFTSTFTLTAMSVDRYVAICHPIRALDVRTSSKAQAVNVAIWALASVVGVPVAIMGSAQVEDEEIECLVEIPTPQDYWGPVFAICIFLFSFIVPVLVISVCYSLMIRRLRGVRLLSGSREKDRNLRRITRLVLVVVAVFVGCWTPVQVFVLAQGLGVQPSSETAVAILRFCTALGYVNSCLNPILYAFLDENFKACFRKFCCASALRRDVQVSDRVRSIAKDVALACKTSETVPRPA
# Adenosine receptor A1 (Homo sapiens), sequence (P30542 whole entry): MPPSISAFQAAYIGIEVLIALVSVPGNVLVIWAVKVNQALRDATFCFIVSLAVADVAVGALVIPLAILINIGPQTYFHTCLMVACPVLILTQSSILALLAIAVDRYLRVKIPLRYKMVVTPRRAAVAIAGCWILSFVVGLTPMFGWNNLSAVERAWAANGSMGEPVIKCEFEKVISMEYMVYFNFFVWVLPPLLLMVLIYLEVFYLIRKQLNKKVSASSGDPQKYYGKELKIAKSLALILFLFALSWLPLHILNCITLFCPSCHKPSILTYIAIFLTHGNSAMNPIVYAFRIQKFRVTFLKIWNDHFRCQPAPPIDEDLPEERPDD
# Histamine H3 receptor (Homo sapiens), sequence (Q9Y5N1 whole entry): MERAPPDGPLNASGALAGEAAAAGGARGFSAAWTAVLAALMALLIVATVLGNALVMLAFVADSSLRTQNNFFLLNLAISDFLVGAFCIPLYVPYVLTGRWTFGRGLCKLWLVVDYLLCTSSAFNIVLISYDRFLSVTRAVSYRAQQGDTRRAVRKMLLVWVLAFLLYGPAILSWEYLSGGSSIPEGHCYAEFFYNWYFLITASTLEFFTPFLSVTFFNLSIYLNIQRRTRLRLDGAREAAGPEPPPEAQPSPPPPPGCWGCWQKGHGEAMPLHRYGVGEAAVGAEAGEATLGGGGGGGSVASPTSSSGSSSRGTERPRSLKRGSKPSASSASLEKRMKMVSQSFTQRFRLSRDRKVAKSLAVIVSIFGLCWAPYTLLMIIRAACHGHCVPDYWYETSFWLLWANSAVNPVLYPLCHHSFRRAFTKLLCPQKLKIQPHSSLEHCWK
# 5-hydroxytryptamine receptor 6 (Homo sapiens), sequence (P50406 whole entry): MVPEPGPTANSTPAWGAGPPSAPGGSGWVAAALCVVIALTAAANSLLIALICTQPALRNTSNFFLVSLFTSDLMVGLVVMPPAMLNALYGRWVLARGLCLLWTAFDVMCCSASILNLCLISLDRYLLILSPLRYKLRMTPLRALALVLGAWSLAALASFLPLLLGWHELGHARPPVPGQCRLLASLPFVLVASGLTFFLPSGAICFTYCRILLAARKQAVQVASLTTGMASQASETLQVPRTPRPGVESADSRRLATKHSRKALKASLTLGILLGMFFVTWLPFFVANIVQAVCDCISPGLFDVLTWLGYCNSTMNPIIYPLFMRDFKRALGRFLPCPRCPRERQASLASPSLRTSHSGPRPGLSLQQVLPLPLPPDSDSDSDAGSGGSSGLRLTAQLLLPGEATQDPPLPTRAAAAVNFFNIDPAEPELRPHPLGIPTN
# D(2) dopamine receptor (Homo sapiens), sequence (P14416 whole entry): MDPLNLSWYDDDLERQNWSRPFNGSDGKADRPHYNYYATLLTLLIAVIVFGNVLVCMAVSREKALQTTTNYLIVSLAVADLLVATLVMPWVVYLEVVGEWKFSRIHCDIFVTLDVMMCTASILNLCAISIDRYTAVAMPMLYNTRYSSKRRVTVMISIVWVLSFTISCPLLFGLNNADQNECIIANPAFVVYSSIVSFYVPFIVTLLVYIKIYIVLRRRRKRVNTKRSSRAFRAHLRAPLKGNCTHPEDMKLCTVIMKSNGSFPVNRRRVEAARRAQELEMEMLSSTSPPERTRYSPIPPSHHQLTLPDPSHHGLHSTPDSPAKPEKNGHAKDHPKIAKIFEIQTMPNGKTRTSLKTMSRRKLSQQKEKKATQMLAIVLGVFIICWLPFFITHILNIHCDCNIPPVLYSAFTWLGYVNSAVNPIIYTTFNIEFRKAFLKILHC
# D(3) dopamine receptor (Homo sapiens), sequence (P35462 whole entry): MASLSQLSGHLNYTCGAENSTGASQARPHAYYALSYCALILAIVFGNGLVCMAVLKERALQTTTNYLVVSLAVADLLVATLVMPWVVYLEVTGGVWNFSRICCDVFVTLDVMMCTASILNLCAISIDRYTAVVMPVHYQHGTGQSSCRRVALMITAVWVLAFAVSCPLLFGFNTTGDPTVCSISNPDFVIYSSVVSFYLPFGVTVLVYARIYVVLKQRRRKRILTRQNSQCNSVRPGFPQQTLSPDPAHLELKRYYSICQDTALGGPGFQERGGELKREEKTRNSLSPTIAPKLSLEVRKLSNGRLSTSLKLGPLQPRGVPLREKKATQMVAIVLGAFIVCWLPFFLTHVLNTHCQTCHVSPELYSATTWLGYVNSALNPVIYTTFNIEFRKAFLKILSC
# Melatonin receptor type 1A (Homo sapiens), sequence (P48039 whole entry): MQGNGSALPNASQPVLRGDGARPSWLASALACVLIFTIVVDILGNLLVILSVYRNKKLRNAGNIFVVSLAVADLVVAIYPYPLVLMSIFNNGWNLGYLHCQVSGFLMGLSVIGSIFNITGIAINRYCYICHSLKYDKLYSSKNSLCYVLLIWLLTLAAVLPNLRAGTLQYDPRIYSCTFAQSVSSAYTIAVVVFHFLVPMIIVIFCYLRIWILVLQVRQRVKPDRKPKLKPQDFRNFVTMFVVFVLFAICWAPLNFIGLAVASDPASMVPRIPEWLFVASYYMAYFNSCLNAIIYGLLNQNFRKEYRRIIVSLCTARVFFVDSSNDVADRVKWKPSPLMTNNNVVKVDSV
compound,measurement,setting,value
Clc1cc2c(NC3CCCC3)nnc(-c3ccncc3)c2cc1Cl,inhibition,[1],6%
same,inhibition,[2],34%
same,inhibition,B-cell,Active
same,inhibition,[3],4%
same,inhibition,[4],20%
same,Activity,HeLa,Active
same,inhibition,[5],-1%
same,inhibition,[6],31%
same,Activity,Embryonic stem cell,Active
same,inhibition,[7],23%
same,inhibition,[8],16%
same,inhibition,[9],13%
same,inhibition,[10],3%
same,inhibition,[11],-5%
same,inhibition,[12],6%
same,inhibition,[13],2%
same,inhibition,[14],inactive
same,inhibition,[15],-2%
same,inhibition,[16],9%
same,inhibition,[17],3%
same,inhibition,[18],98%
same,inhibition,[19],26%
same,inhibition,[20],1%
same,inhibition,[21],inactive
same,inhibition,[22],14%
same,inhibition,[23],inactive
same,inhibition,[24],-6%
O=C(c1nnc(NC2CCCC2)c2cc(Cl)c(Cl)cc12)N1CCC(O)CC1,inhibition,[1],12%
same,inhibition,[2],17%
same,inhibition,B-cell,inactive
same,inhibition,[3],5%
same,inhibition,[4],17%
same,inhibition,[5],-7%
same,inhibition,[6],23%
same,Activity,Embryonic stem cell,inactive
same,inhibition,[7],-2%
same,inhibition,[8],-3%
same,inhibition,[9],0%
same,inhibition,[11],-4%
same,inhibition,[12],-4%
same,inhibition,[13],-1%
same,inhibition,[15],-1%
same,inhibition,[16],10%
same,inhibition,[17],13%
same,inhibition,[18],55%
same,inhibition,[19],11%
same,inhibition,[20],0%
same,inhibition,[22],7%
same,inhibition,[24],5%
